Our source for the EC50 values is PubChem BioAssay AID2253 (Southern Research Specialized Biocontainment Screening …, 2010).

This assay deals with THP-1 viability, CellTiter-Glo luminescence, 72 h. Nature of the assay: human monocytic cell viability reduction – S. typhimurium screen hits, cytotoxicity control for Salmonella PhoP regulon inhibitors, dose response (AID 2253).

pEC50: −log10 of the molar value.

Take `Nc1nc(F)nc2c1ncn2[C@@H]1O[C@H](CO)[C@@H](O)[C@H]1O`: the pEC50 (in general, the negative decadic logarithm of the EC50, by convention in mol/L) was 6.52.

On to `C=CCNc1ncnc2c1[nH]c1ccccc12`, for which the pEC50 is 4.34.

For `CN(C)c1ccc([C@@H]2[C@@H]([N+](=O)[O-])[C@H]3C=Cc4ccccc4N3[C@H]2C(=O)c2ccc(Cl)cc2)cc1`, the pEC50 is 4.69.

For `Cc1cc(C)nc(/N=C(\N)Nc2ccc(SC(F)F)cc2)n1`, the pEC50 was 4.88.

Consider `Nc1cc2nsnc2cc1Br`, for which the pEC50 was 5.13.

On to `Oc1c(C(c2ccccn2)N2CCOCC2)ccc2cccnc12` (stereo not drawn), for which the pEC50 was 4.86.

On to `Cc1cc(C)c2ccc(N)nc2c1O`, for which the pEC50 is 5.54.

As to `COc1ccc(C(=O)Cn2nc(CNc3ccc(Br)cc3)[n+]3c2CCCCC3)cc1`, the pEC50 was 5.11.

In the case of `C[C@H]1O[C@@H](n2cc(F)c(=O)[nH]c2=O)[C@H](O)[C@@H]1O`, the pEC50 is 4.36.

In the case of `O=C(N/N=C/c1ccc(F)cc1)c1cc(-c2ccco2)nc2ccccc12`, the pEC50 is 4.42.

As for `O=S(=O)(c1ccccc1)N(CC(O)Cn1c2ccccc2c2ccccc21)c1ccccc1` (stereo not drawn), the pEC50 is 4.95.

Turning to `Oc1c(CN2CCN(c3ccc(F)cc3)CC2)cc(Cl)c2cccnc12`, the pEC50 was 5.20.

`Cc1ccc(C)c(/C=C/C(=O)c2ccccc(=O)c2O)c1`: the pEC50 was 5.02.

`CCN1CCN(C(c2cccnc2)c2cc(Cl)c3cccnc3c2O)CC1` (stereo not drawn): the negative logarithm of the EC50 (pEC50) is 5.08.

With `CCCCCCNC(=O)c1cn(CC)c2cc(N3CCN(C)CC3)c(F)cc2c1=O`, the negative logarithm of the EC50 (pEC50) was 4.79.

Consider `c1ccc2c(CCNCc3ccc4c(c3)OCO4)c[nH]c2c1`, for which the pEC50 was 4.62.

Consider `c1ccc2c(c1)CCN(c1ncnc3c1[nH]c1ccccc13)C2`, for which the pEC50 is 4.97.

With `CNC[C@H](Cc1ccccc1)NC[C@@H](Cc1cccc2ccccc12)NCCc1ccc(C)cc1`, the pEC50 is 5.32.

`COC(=O)C(C)NC(=S)N1CCN(c2c(F)cc3c(=O)c(C(=O)O)cn(C4CC4)c3c2OC)CC1C` (stereo not drawn): the pEC50 was 4.70.

In the case of `O=[N+]([O-])/C=C/c1cc2ccccc2[nH]1`, the pEC50 is 4.50.

`O=c1cc2oc3cc(O)c(O)cc3c(-c3ccccc3[N+](=O)[O-])c-2cc1O`: the pEC50 was 4.98.

On to `CCOc1ccc(Nc2nc(N)c3ccccc3n2)cc1`, for which the pEC50 was 5.15.

In the case of `Clc1ccc(Nc2ccc(NCc3ccccc3)nn2)cc1`, the pEC50 was 4.67.

Take `OC(c1cc(-c2ccc(C(F)(F)F)cc2)nc(C(F)(F)F)c1)C1CCCCN1` (stereo not drawn): the negative logarithm of the EC50 (pEC50) is 5.21.

Regarding `CN(C)c1ccc(/C=C/c2ccc3ccccc3[n+]2C)cc1`, the pEC50 was 6.52.

Take `O=C1c2ccccc2NC(c2ccc(-c3ccc(Br)cc3)o2)N1O` (stereo not drawn): the pEC50 is 5.15.

As to `COc1ccc(Nc2cc(C)nc(NCc3ccccc3)n2)cc1`, the pEC50 was 5.00.

Take `CCN(CC)CCOc1ccc2c(c1)C(=NNC(=O)c1ccccn1)c1cc(OCCN(CC)CC)ccc1-2`: the pEC50 is 5.45.

Consider `Cc1c(C)n(Cc2ccccc2)c2ncnc(NN)c12`, for which the pEC50 was 4.63.

Take `CCCCCCCCCCOC(=O)Cn1c(COc2ccc(C)cc2)[n+](C)c2ccccc21`: the pEC50 was 5.47.

For the compound `C/C(=N\NC(=O)c1cc2ccccc2cc1O)c1ccccn1`, the pEC50 was 6.12.

As for `S=C(Nc1ccccc1)Nc1nc2ccccc2n1CCOc1ccc(Cl)cc1`, the pEC50 is 4.82.

Consider `N=c1n(CC(=O)c2ccc([N+](=O)[O-])cc2)c2ccccc2n1Cc1ccccc1`, for which the pEC50 was 4.84.

Consider `O=C1C2=C(NC(=S)NC2c2ccc(Cl)cc2)NC(c2ccc(Cl)cc2)N1c1ccc(Cl)cc1` (stereo not drawn), for which the pEC50 is 4.95.

Consider `O=C(CSc1nc2ccccc2s1)N/N=C/c1cc([N+](=O)[O-])ccc1O`, for which the pEC50 was 4.58.

Consider `Oc1c(Cl)cc(Cl)c2cccnc12`, for which the pEC50 is 4.89.

Turning to `Cc1ccc2[nH]c3c(NCc4ccco4)ncnc3c2c1`, the pEC50 was 4.46.

Consider `COc1ccc(Nc2cc(C)c3c(O)cccc3n2)cc1`, for which the pEC50 is 4.82.

As for `Cc1cccc(N2CCc3c2nc2ccccc2c3N)c1`, the pEC50 is 4.32.

Consider `Cc1cc(O)ccc1Nc1nc2ccccc2nc1Nc1ccc(O)cc1C`, for which the pEC50 was 4.61.

As to `C#CCOCCOCCOCCNc1nc(N2CCN(C(=O)CCCCCCCCCCNC(=O)[C@H](CO)n3cc(CCCCCN)nn3)CC2)nc(N2CCN(C(=O)CCCCCCCCCCNC(=O)[C@H](CCCN=C(N)N)n3cc(C[C@@H](C)CC)nn3)CC2)n1`, the pEC50 is 5.05.

Regarding `O=C1C(=O)c2ccccc2-c2ccccc21`, the pEC50 is 5.10.

Turning to `CN(C)CC(C(=O)c1ccccc1)c1ccccc1` (stereo not drawn), the pEC50 is 5.31.

Regarding `COc1ccc(O)c(/C=c2/sc3nc4cc(C)c(C)cc4n3c2=O)c1`, the pEC50 is 4.47.

For `O=c1c(Cl)c(Cl)cnn1Cc1ccccc1Cl`, the pEC50 was 5.53.

Consider `O=C(Cc1ccccc1)Nc1cccc(N2C(=O)C=CC2=O)c1`, for which the pEC50 is 4.79.

Consider `COc1cccc(Nc2nc(-c3sc(NC(=O)c4ccco4)nc3C)cs2)c1`, for which the pEC50 was 4.39.

As for `Cc1cc(C)c2nc(NNC(=O)c3ccc(S(=O)(=O)N4CCc5ccccc5C4)cc3)sc2c1`, the pEC50 was 5.77.

Take `NC1=NC[C@H](Cc2ccc(O)cc2)N1CCC12CC3CC(CC(C3)C1)C2`: the pEC50 was 4.98.

`CC1CCCC(C)N1/N=C/c1c[nH]c2ccc(Br)cc12` (stereo not drawn): the pEC50 was 4.84.

As for `Nc1ccc2c(c1)C(=O)C(=O)c1ccccc1-2`, the pEC50 was 5.65.

On to `O=C(C[n+]1cccc(CNC(=O)c2ccc(OC(F)F)cc2)c1)Nc1ccc(SC(F)F)cc1`, for which the pEC50 is 4.93.

Consider `Cc1cc(SCC(=O)N/N=C/c2ccc(O)c(O)c2O)c(C)cc1Br`, for which the pEC50 is 5.56.

With `Cc1cc(C)c2nc(NNC(=O)c3ccc(S(=O)(=O)N4CCCCC4)cc3)sc2c1`, the pEC50 is 5.33.

As to `c1ccc2c(C3=NNC(=NC4CCCCC4)SC3)c[nH]c2c1`, the pEC50 is 4.72.

With `CCn1c2ccccc2c2cc(/C=N/NC(=O)c3ccccc3)ccc21`, the pEC50 is 5.39.

Consider `Cc1[nH]n(-c2ncc(-c3ccc(Cl)cc3)s2)c(=O)c1C(c1ccc(Cl)cc1)C(C#N)C#N` (stereo not drawn), for which the pEC50 was 4.35.

Turning to `CC(C(=O)NC1CCS(=O)(=O)C1)N1C(=O)/C(=C/c2ccc(Cl)cc2)SC1=S` (stereo not drawn), the pEC50 was 4.31.

For `Cc1ccc(/C=C2\SC(=S)N(Cc3ccccc3)C2=O)o1`, the pEC50 was 4.61.

In the case of `C1=C(CCNc2ncnc3c2[nH]c2ccccc23)CCCC1`, the pEC50 is 5.20.

For `Cc1nc(N)nc(N)c1/C=C/C(C)(C)c1ccc(Cl)cc1`, the pEC50 is greater than 7.00.

On to `CC1(C)CC(=O)C2=C(C1)N(c1ccc(F)cc1)C(N)=C(C#N)C2c1cccs1` (stereo not drawn), for which the pEC50 was 4.45.

Regarding `CC(=O)NC(c1cccc([N+](=O)[O-])c1)c1ccc2cccnc2c1O` (stereo not drawn), the pEC50 was 6.31.

On to `Nc1ncn(C2O[C@H](CO)[C@@H](O)[C@H]2O)c(=O)n1` (stereo partly drawn), for which the pEC50 is 4.97.

Turning to `Oc1ccccc1CN1CCCN(Cc2ccccc2O)C1`, the pEC50 is 4.62.

On to `O=c1ccc2ccc(Oc3ccc([N+](=O)[O-])cc3[N+](=O)[O-])cc2o1`, for which the pEC50 is 5.10.

In the case of `Cc1nc2c(C(=O)NCCC(C)C)c[nH]n2c(=O)c1Cc1ccccc1F`, the pEC50 is 4.51.

With `Cc1ccccc1OCc1n(CC(=O)OC2CC(C)CCC2C(C)C)c2ccccc2[n+]1C` (stereo not drawn), the negative-log EC50 (pEC50) is 5.70.

Take `Oc1c(C(Nc2ccccn2)c2ccccn2)ccc2cccnc12` (stereo not drawn): the pEC50 is 5.37.

In the case of `Clc1ccc(-c2csc3ncnc(N4CCc5ccccc5C4)c23)cc1`, the negative logarithm of the EC50 (pEC50) was 4.36.

Regarding `CCCCCc1ccc(OCCOCCn2c[n+](C)c3ccccc32)c(CCCCC)c1`, the pEC50 was 5.87.

For the compound `CCCCCC(CC(=O)NO)C(=O)NC(C(=O)N1CCCC1CO)C(C)C` (stereo not drawn), the pEC50 was 4.44.

For the compound `COc1cc(C(=O)NC(=S)Nc2ccc3oc(=O)ccc3c2)cc(OC)c1OC`, the pEC50 was 4.34.

With `NC1=NC[C@H](Cc2ccc(O)cc2)N1CCCCC1CCCCC1`, the pEC50 was 5.58.

With `CCOc1ccc(CSC(=N)N)cc1[N+](=O)[O-]`, the pEC50 is 4.69.

In the case of `Nc1nonc1-n1nnc(C(=O)N/N=C/c2ccc(Br)cc2)c1CSC1=NCCS1`, the pEC50 was 4.63.

For the compound `COc1ccc(OC)c(/C=N/NC(=O)c2cc3c(OC)c(OC)ccc3[nH]2)c1`, the pEC50 is 4.36.

On to `CN1/C(=C\C=N\NC(=O)c2ccccc2Br)C(C)(C)c2ccccc21`, for which the pEC50 is 4.49.

As for `Cc1ccc(C[n+]2cc(-c3ccc(Cl)cc3)n3c2CCC3)cc1`, the pEC50 is 4.92.

Turning to `Oc1[nH]c(=S)sc1/C=C1\C(c2ccccc2)=Nc2ccccc21`, the pEC50 is 4.59.

In the case of `Oc1c(CN2CCOCC2)cc(COCc2ccccc2)c2cccnc12`, the pEC50 is 5.51.

Take `COc1ccc(C(C[N+](=O)[O-])C2(c3ccc(OC)c(OC)c3)C(=O)c3ccccc3C2=O)cc1` (stereo not drawn): the pEC50 is 4.90.

In the case of `Cc1cc(C(=O)N/N=C/c2ccc([N+](=O)[O-])s2)n[nH]1`, the pEC50 is 4.89.

Take `CCOC(=O)C1=Nc2ccccc2C1=[N+]=[N-]`: the pEC50 was 4.57.

Consider `Cn1c(NCc2cc(Br)ccc2O)nc2ccccc21`, for which the pEC50 was 4.43.

Turning to `CC(C)c1ccc(C2C3CSCC=C3C(C#N)=C(N)C2(C#N)C#N)cc1` (stereo not drawn), the negative logarithm of the EC50 (pEC50) is 4.40.

As for `S=C(NN=C1C2CC3CC(C2)CC1C3)Nc1ccccc1`, the pEC50 is 4.52.

As to `Cc1ccc2nc(NNC(=O)c3ccc(S(=O)(=O)N4CCc5ccccc5C4)cc3)sc2c1`, the pEC50 is 5.74.

`O=c1c2c(-c3ccccc3)csc2nc2c3ccccc3c(NCCN3CCOCC3)nn12`: the pEC50 was 5.51.

On to `CCCCCCCCn1c2c(c(=N)c3c1CCC3)CCCC2`, for which the pEC50 is 6.11.

In the case of `CN(c1ccccc1)S(=O)(=O)c1cc(C(=O)Nc2nc3ccccc3[nH]2)ccc1Cl`, the pEC50 was 4.62.

With `CCCCCCCCCCCCCCCC[n+]1cccc(C(=O)N(CC)CC)c1`, the pEC50 is 6.19.

As to `CCOC(=O)N1CCN(S(=O)(=O)c2ccc(C(=O)NNc3nc4cc(C)cc(C)c4s3)cc2)CC1`, the pEC50 was 5.54.

As to `C#CCn1cc(/C=N/Nc2nc3ccccc3[nH]2)c2ccccc21`, the pEC50 is 5.21.

In the case of `O=C1NC(=S)S/C1=C\C=C\c1ccc([N+](=O)[O-])o1`, the pEC50 is 5.04.

Regarding `CCCCCCCCCCOC(=O)Cn1c(COc2ccccc2OC)[n+](C)c2ccccc21`, the pEC50 is 5.66.

As for `O=C(C[n+]1cc(-c2ccc(Cl)cc2)n2c1CCC2)Nc1nc(-c2ccc(F)cc2)cs1`, the pEC50 was 4.57.

In the case of `O=C1OC(/C(=C\Nc2ccc(F)cc2F)[N+](=O)[O-])c2ccccc21` (stereo not drawn), the pEC50 was 4.50.
